Measured values reported in US20100210654A1, “NOVEL P2Y12 RECEPTOR ANTAGONISTS” (RHEINISCHE FRIEDRICH-WILHELMS UNIVERSITÄT BONN, priority 2007, published 2010).
Read-outs that look alike come from different tables or passages of the source.

Tests used:
[1] = molecular target: T1, human platelet P2Y12 receptors (Homo sapiens, UniProt Q9H244); test: Radioligand binding assay with [3H]PSB-0413 at human platelet membranes
T1 construct: Membranes were prepared from human outdated platelets from the blood bank; from tissue; host or cells: human platelets (University of Bonn blood bank), membrane preparation
T1 sequence (Q9H244 whole entry): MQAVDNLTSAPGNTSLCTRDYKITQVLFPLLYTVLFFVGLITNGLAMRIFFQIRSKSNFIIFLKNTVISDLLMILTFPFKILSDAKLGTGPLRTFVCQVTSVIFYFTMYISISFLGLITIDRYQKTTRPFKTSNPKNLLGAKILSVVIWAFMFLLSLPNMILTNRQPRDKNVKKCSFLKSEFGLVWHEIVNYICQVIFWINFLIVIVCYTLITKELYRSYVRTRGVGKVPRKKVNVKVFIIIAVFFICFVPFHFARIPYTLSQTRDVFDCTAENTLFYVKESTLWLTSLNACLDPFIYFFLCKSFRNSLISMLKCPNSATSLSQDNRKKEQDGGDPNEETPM
Protocol: Membranes were prepared from human outdated platelets from the blood bank. Outdated human platelets were obtained from the University of Bonn blood bank 4-5 days after donation. Platelet rich plasma was washed by centrifugation (10 min at 1000 g) in a buffer consisting of 50 mM Tris-HCl, pH 7.4, 5 mM EDTA and 150 mM NaCl. The supernatant was centrifuged twice (48400 g for 60 min) and the resultant platelet pellet were resuspended in 5 mM Tris-HCl (pH 7.4) containing 5 mM EDTA. The platelets were homogenized by a homogenizer. The final suspension was stored frozen as multiple aliquots at −80° C. until needed. Protein concentrations were determined by the method of Lowry using a Sigma Chemie protein assay kit.
Radioligand binding assays were performed using 5 nM [^3H]PSB-0413 and 100 μg of protein in Tris-HCl buffer 50 mM, pH 7.4, as previously described. (El-Tayeb, A., Griessmeier, K. J, Müller, C. E. Bioorg. Med. Chem. Lett. 2005, 15, 5450-52; Atzler, K. Doctoral Thesis, University of Bonn, 2006). Competition by 10 μM of test compound was initially determined. The mixture was incubated for 1 h at rt followed by filtration through GF/B filters. Nonspecific binding was determined with 1 mM ADP or 250 μM RB 2. […] At least three independent experiments were performed each in triplicate.
The data were analyzed using GraphPad Prism 4.0 (GraphPad Software, Inc., San Diego, Calif.).

[2] = human platelet membranes, 5 nM [3H]PSB-0413, 1 h at rt, mean ± SEM, read-out: hP2Y12 Receptor Ki [μM ± SEM] vs. [3H]PSB-0413

| Compound | melting point | Ki [1, 2] | further results |
| --- | --- | --- | --- |
| Nc1ccccc1Nc1cc(S(=O)(=O)[O-])c(N)c2c1C(=O)c1ccccc1C2=O.[Na+] [Example 5, Sodium 1-amino-4-(2-aminophenylamino)-9,10-dioxo-9,10-dihydroanthracene 2-sulfonate] | > 300 °C |  |  |
| Nc1cccc(Nc2cc(S(=O)(=O)O)c(N)c3c2C(=O)c2ccccc2C3=O)c1 [Entry 14] |  | > 10 µM |  |
| Nc1cc(Nc2cc(S(=O)(=O)O)c(N)c3c2C(=O)c2ccccc2C3=O)ccc1S(=O)(=O)O [Entry 4] |  | 2.1 ± 0.47 µM |  |
| Nc1ccc(Nc2cc(S(=O)(=O)O)c(N)c3c2C(=O)c2ccccc2C3=O)c(S(=O)(=O)O)c1 [Entry 9] |  | 19.7 ± 8.27 µM |  |
| Nc1c(S(=O)(=O)O)cc(Nc2cc(Cl)ccc2C(=O)O)c2c1C(=O)c1ccccc1C2=O [Entry 7] |  | 12.2 ± 0.3 µM |  |
| Nc1c(S(=O)(=O)[O-])cc(Nc2ccccc2O)c2c1C(=O)c1ccccc1C2=O.[Na+] | > 300 °C |  |  |
| Nc1c(S(=O)(=O)[O-])cc(Nc2ccc(C(=O)O)cc2)c2c1C(=O)c1ccccc1C2=O.[Na+] [Example 4, Sodium 1-amino-4-(4-carboxyphenylamino)-9,10-dioxo-9,10-dihydroanthracene 2-sulfonate] | > 300 °C |  |  |
| COc1cccc(Nc2cc(S(=O)(=O)[O-])c(N)c3c2C(=O)c2ccccc2C3=O)c1.[Na+] [Example 18, Sodium 1-amino-4-(3-methoxyphenylamino)-9,10-dioxo-9,10-dihydroanthracene 2-sulfonate] | > 300 °C |  |  |
| Nc1c(S(=O)(=O)O)cc(Nc2ccccc2O)c2c1C(=O)c1ccccc1C2=O [Entry 11] |  | ~10 µM |  |
| Nc1c(S(=O)(=O)O)cc(Nc2ccc(Oc3ccccc3)c(S(=O)(=O)O)c2)c2c1C(=O)c1ccccc1C2=O [Entry 22] |  | 0.063 ± 0.009 µM |  |
| COc1ccc(Nc2cc(S(=O)(=O)[O-])c(N)c3c2C(=O)c2ccccc2C3=O)cc1.[Na+] [Example 19, Sodium 1-amino-4-(4-methoxyphenylamino)-9,10-dioxo-9,10-dihydroanthracene 2-sulfonate] | > 300 °C |  |  |
| Nc1c(S(=O)(=O)[O-])cc(Nc2ccc(CC(=O)O)cc2)c2c1C(=O)c1ccccc1C2=O.[Na+] [Example 15, Sodium 1-amino-4-(4-carboxymethylphenylamino)-9,10-dioxo-9,10-dihydro-anthracene 2-sulfonate] | > 300 °C |  |  |
| Nc1c(S(=O)(=O)[O-])cc(Nc2cccc(Br)c2)c2c1C(=O)c1ccccc1C2=O.[Na+] [Example 21, Sodium 1-amino-4-(3-bromophenylamino)-9,10-dioxo-9,10-dihydroanthracene 2-sulfonate] | > 300 °C |  |  |
| Nc1c(S(=O)(=O)[O-])cc(Nc2cccc(C(=O)O)c2)c2c1C(=O)c1ccccc1C2=O.[Na+] [Example 3, Sodium 1-amino-4-(3-carboxyphenylamino)-9,10-dioxo-9,10-dihydroanthracene 2-sulfonate] | > 300 °C |  |  |
| Nc1ccc(Nc2cc(S(=O)(=O)[O-])c(N)c3c2C(=O)c2ccccc2C3=O)cc1.[Na+] | > 300 °C |  |  |
| Nc1c(S(=O)(=O)O)cc(Nc2ccccc2C(=O)O)c2c1C(=O)c1ccccc1C2=O [Entry 8] |  | 25.1 ± 7 µM |  |
| Cc1cc(C)cc(Nc2cc(S(=O)(=O)[O-])c(N)c3c2C(=O)c2ccccc2C3=O)c1.[Na+] [Example 22, Sodium 1-amino-4-(3,5-dimethylphenylamino)-9,10-dioxo-9,10-dihydroanthracene 2-sulfonate] | > 300 °C |  |  |
| Cc1cc(Nc2ccc(Nc3ccccc3)c(S(=O)(=O)O)c2)c2c(c1N)C(=O)c1ccccc1C2=O [Entry 30] |  | 0.541 µM |  |
| Cc1c(N)cccc1Nc1cc(S(=O)(=O)[O-])c(N)c2c1C(=O)c1ccccc1C2=O.[Na+] [Example 24, Sodium 1-amino-4-(3-amino-2-methylphenylamino)-9,10-dioxo-9,10-dihydroanthracene 2-sulfonate] | > 300 °C |  |  |
| Nc1c(S(=O)(=O)O)cc(Nc2ccc(Nc3nc(Cl)nc(Cl)n3)cc2)c2c1C(=O)c1ccccc1C2=O [Entry 35] |  | 1.9 ± 0.24 µM |  |
| Nc1c(S(=O)(=O)O)cc(Nc2ccc(Nc3ccccc3)c(S(=O)(=O)O)c2)c2c1C(=O)c1ccccc1C2=O [Entry 24] |  | 0.0249 ± 0.0032 µM |  |

| Compound | melting point | Ki [1, 2] | further results |
| --- | --- | --- | --- |
| Nc1c(S(=O)(=O)O)cc(Nc2ccc(Cl)cc2C(=O)O)c2c1C(=O)c1ccccc1C2=O [Entry 10] |  | 12.3 ± 1.7 µM |  |
| Nc1c(S(=O)(=O)[O-])cc(Nc2ccccc2C(=O)O)c2c1C(=O)c1ccccc1C2=O.[Na+] | > 300 °C |  |  |
| Nc1c(S(=O)(=O)O)cc(Nc2ccc(Nc3nc(O)nc(O)n3)cc2S(=O)(=O)O)c2c1C(=O)c1ccccc1C2=O [Entry 39] |  | > 10 µM |  |
| Nc1c(S(=O)(=O)O)cc(Nc2ccc(Nc3nc(O)nc(O)n3)c(S(=O)(=O)O)c2)c2c1C(=O)c1ccccc1C2=O [Entry 38] |  | ~10 µM |  |
| Nc1c(S(=O)(=O)O)cc(Nc2cc(Nc3nc(Cl)nc(Cl)n3)cc(C(=O)O)c2)c2c1C(=O)c1ccccc1C2=O [Entry 34] |  | 3.76 ± 1.03 µM |  |
| Nc1c(S(=O)(=O)[O-])cc(Nc2ccc(F)cc2)c2c1C(=O)c1ccccc1C2=O.[Na+] [Example 20, Sodium 1-amino-4-(4-fluorophenylamino)-9,10-dioxo-9,10-dihydroanthracene 2-sulfonate] | > 300 °C |  |  |
| Nc1c(S(=O)(=O)O)cc(Nc2ccc(Nc3ncccn3)cc2)c2c1C(=O)c1ccccc1C2=O [Entry 36] |  | ~10 µM |  |
| Nc1cc(Nc2cc(S(=O)(=O)O)c(N)c3c2C(=O)c2ccccc2C3=O)cc(C(=O)O)c1 [Entry 6] |  | 7.07 ± 1.7 µM |  |
| Nc1c(S(=O)(=O)[O-])cc(Nc2ccc(O)cc2)c2c1C(=O)c1ccccc1C2=O.[Na+] | > 300 °C |  |  |
| Nc1c(S(=O)(=O)O)cc(Nc2ccc(Nc3nc(Cl)nc(Cl)n3)c(S(=O)(=O)O)c2)c2c1C(=O)c1ccccc1C2=O [Entry 32] |  | 2.45 ± 1 µM |  |
| Nc1cccc(Nc2cc(S(=O)(=O)[O-])c(N)c3c2C(=O)c2ccccc2C3=O)c1.[Na+] | > 300 °C |  |  |
| Nc1c(S(=O)(=O)[O-])cc(Nc2cc(Cl)ccc2C(=O)O)c2c1C(=O)c1ccccc1C2=O.[Na+] | > 300 °C |  |  |
| Nc1c(S(=O)(=O)O)cc(Nc2ccc(O)cc2)c2c1C(=O)c1ccccc1C2=O [Entry 12] |  | ~10 µM |  |
| Nc1c(S(=O)(=O)O)cc(Nc2ccc(S(=O)(=O)O)cc2)c2c1C(=O)c1ccccc1C2=O [Entry 2] |  | 3.13 ± 0.39 µM |  |
| Nc1cc(Nc2cc(S(=O)(=O)[O-])c(N)c3c2C(=O)c2ccccc2C3=O)cc(C(=O)O)c1.[Na+] | > 300 °C |  |  |
| Nc1c(S(=O)(=O)O)cc(Nc2ccc(Sc3ccccc3)cc2)c2c1C(=O)c1ccccc1C2=O [Entry 19] |  | 0.884 ± 0.525 µM |  |
| Nc1c(S(=O)(=O)[O-])cc(Nc2ccc(S(=O)(=O)[O-])cc2)c2c1C(=O)c1ccccc1C2=O.[Na+].[Na+] | > 300 °C |  |  |
| Nc1c(S(=O)(=O)O)cc(Nc2ccc(Cc3ccccc3)cc2)c2c1C(=O)c1ccccc1C2=O [Entry 13] |  | 0.614 µM |  |
| Nc1c(S(=O)(=O)O)cc(Nc2ccc(S(=O)(=O)O)c(Nc3nc(Cl)nc(Cl)n3)c2)c2c1C(=O)c1ccccc1C2=O [Entry 31] |  |  | Ki [1]: 17.1 ± 7.8 µM |
| Nc1c(S(=O)(=O)[O-])cc(Nc2ccccc2S(=O)(=O)[O-])c2c1C(=O)c1ccccc1C2=O.[Na+].[Na+] [Example 26, Disodium 1-amino-4-(2-sulfophenylamino)-9,10-dioxo-9,10-dihydroanthracene 2-sulfonate] | > 300 °C |  |  |
